# Patent EP3431484A1, “A FLUORESCENT CYCLIC DINUCLEOTIDE AND ITS USE IN METHODS OF IDENTIFYING SUBSTANCES HAVING AN ABILITY TO MODULATE THE CGAS/STING PATHWAY” (Ludwig-Maximilians-Universität München, priority 2017, dated 2019)
# Tested on: human truncated STING (hSTING^cd), cytosolic domain aa 139-379, R220H+H232R variant
# Settings: 200 µM hSTING^cd, 0-150 µM competitor; Figure 10d
# Experimental: The quenching effect of STING on 2'3'fGAMP can be further used to search and compare STING-binding compounds. […] After second round of incubation for 15 min the samples were measured in 96-well black non-binding PS plates (Greiner Bio-One) on Tecan infinite M1000 (λex=305 nm, λem=363 nm, gain 140, settle time 10ms) at 25°C.
compound,measurement,value
Nc1nc2c(ncn2[C@@H]2O[C@@H]3COP(=O)(O)O[C@H]4[C@@H](O)[C@H](n5cnc6c(=O)[nH]c(N)nc65)O[C@@H]4COP(=O)(O)O[C@H]3[C@H]2O)c(=O)[nH]1 [c-di-GMP],"affinity towards STING, compared by slope of fluorescence increase (s1, s2)",lower affinity
